Source: PubChem BioAssay AID264 (DTP/NCI, 2004)
“And” between values parts separate entries of the source, which are not always exact repeats. Equal entries are not always repeated. Records with an inconclusive call do not appear.

Tested on: nude mice, LX-1 lung xenograft intrarenal, tumor weight T/C
Assay: NCI In Vivo Anticancer Drug Screen. Data for tumor model Human Lung LX-1 Xenograft (intrarenal inoculation) in NU/NU Swiss (nude) mice
Conditions: endpoint: mean tumor weight change, higher = larger tumour
How it was run: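 Readout: T/C, i.e. treated-group tumor measurement over vehicle-control measurement. Mice bearing transplantable tumors were dosed with compound or vehicle.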

[1] = dose: 2.5 mg/kg/injection, schedule: Q04DX003 (sc), vehicle: saline
[2] = dose: 5.0 mg/kg/injection, schedule: Q04DX003 (sc), vehicle: saline
[3] = dose: 100.0 mg/kg/injection, schedule: Q04DX003 (sc), vehicle: saline with Tween-80
[4] = dose: 200.0 mg/kg/injection, schedule: Q04DX003 (sc), vehicle: saline with Tween-80
[5] = dose: 1200.0 mg/kg/injection, schedule: Q04DX003 (sc), vehicle: saline with Tween-80
[6] = dose: 100.0 mg/kg/injection, schedule: Q01DX010 (sc), vehicle: Klucel (hydroxypropylcellulose) (HPC)
[7] = dose: 200.0 mg/kg/injection, schedule: Q01DX010 (sc), vehicle: Klucel (hydroxypropylcellulose) (HPC)
[8] = dose: 600.0 mg/kg/injection, schedule: Q04DX003 (sc), vehicle: saline with Tween-80
[9] = dose: 300.0 mg/kg/injection, schedule: Q04DX003 (sc), vehicle: saline

Cc1c2ccc3ccccc3c2c[n+]2ccccc12
T/C (dose: 4.69 mg/kg/injection, schedule: Q04DX003 (sc), vehicle: Klucel (hydroxypropylcellulose) (HPC)): 110 % of control
T/C (dose: 9.38 mg/kg/injection, schedule: Q04DX003 (sc), vehicle: Klucel (hydroxypropylcellulose) (HPC)): 87 % of control
T/C (dose: 18.75 mg/kg/injection, schedule: Q04DX003 (sc), vehicle: Klucel (hydroxypropylcellulose) (HPC)): 72 % of control

Cc1ccccc1N(CC1CO1)CC1CO1 (configuration not stated)
T/C (dose: 50.0 mg/kg/injection, schedule: Q01DX010 (sc), vehicle: suspension in saline): 33 % of control
T/C (dose: 100.0 mg/kg/injection, schedule: Q01DX010 (sc), vehicle: suspension in saline): 22 % of control
T/C (dose: 200.0 mg/kg/injection, schedule: Q01DX010 (sc), vehicle: suspension in saline): 104 % of control
T/C (dose: 400.0 mg/kg/injection, schedule: Q01DX010 (sc), vehicle: suspension in saline): 59 % of control

NC(=O)c1[nH]nc(C2OC(CO)C(O)C2O)c1O (configuration not stated)
T/C (dose: 0.62 mg/kg/injection, schedule: Q04DX003 (sc), vehicle: saline): 77 % of control
T/C (dose: 1.25 mg/kg/injection, schedule: Q04DX003 (sc), vehicle: saline): 65 % of control
T/C [1]: 109 % of control
T/C [2]: 78 % of control

c1ccc([P+](c2ccccc2)(c2ccccc2)c2ccccc2)cc1
T/C [1]: 93 % of control
T/C [2]: 107 % of control
T/C (dose: 10.0 mg/kg/injection, schedule: Q04DX003 (sc), vehicle: saline): 71 % of control and 87 % of control

C=C1C(=O)OCC2C(C(=O)O)=CC3C(C)C(C)=CC123 (configuration not stated)
T/C (dose: 3.13 mg/kg/injection, schedule: Q01DX010 (sc), vehicle: Klucel (hydroxypropylcellulose) (HPC)): 56 % of control
T/C (dose: 6.25 mg/kg/injection, schedule: Q01DX010 (sc), vehicle: Klucel (hydroxypropylcellulose) (HPC)): 109 % of control
T/C (dose: 12.5 mg/kg/injection, schedule: Q01DX010 (sc), vehicle: Klucel (hydroxypropylcellulose) (HPC)): 78 % of control
T/C (dose: 25.0 mg/kg/injection, schedule: Q01DX010 (sc), vehicle: Klucel (hydroxypropylcellulose) (HPC)): 165 % of control

COC1/C=C/O[C@@]2(C)Oc3c(C)c(O)c4c(O)c(cc(O)c4c3C2=O)NC(=O)/C(C)=C\C=C\[C@H](C)C(O)[C@@H](C)[C@@H](O)[C@@H](C)[C@H](OC(C)=O)[C@@H]1C (some centres not stated)
T/C (dose: 300.0 mg/kg/injection, schedule: Q04DX003 (sc), vehicle: suspension in saline): 60 % of control
T/C (dose: 600.0 mg/kg/injection, schedule: Q04DX003 (sc), vehicle: suspension in saline): 84 % of control
T/C (dose: 1200.0 mg/kg/injection, schedule: Q04DX003 (sc), vehicle: suspension in saline): 53 % of control
T/C (dose: 2400.0 mg/kg/injection, schedule: Q04DX003 (sc), vehicle: suspension in saline): 64 % of control

COC(=O)Nc1nc2ccc(C3(c4ccc(F)cc4)OCCO3)cc2[nH]1
T/C (dose: 25.0 mg/kg/injection, schedule: Q04DX003 (sc), vehicle: saline with Tween-80): 76 % of control
T/C (dose: 50.0 mg/kg/injection, schedule: Q04DX003 (sc), vehicle: saline with Tween-80): 71 % of control
T/C [3]: 89 % of control
T/C [4]: 79 % of control
T/C [5]: 17 % of control and 37 % of control

CN(C)/N=N/c1nc[nH]c1C(N)=O
T/C (dose: 50.0 mg/kg/injection, schedule: Q01DX010 (sc), vehicle: Klucel (hydroxypropylcellulose) (HPC)): 4 % of control
T/C [6]: -84 % of control
T/C [7]: -100 % of control

O=C1N[C@@H]2C(=C[C@H](O)[C@@H](O)[C@H]2O)c2cc3c(c(O)c21)OCO3
T/C (dose: 2.5 mg/kg/injection, schedule: Q04DX003 (sc), vehicle: saline with Tween-80): 97 % of control
T/C (dose: 5.0 mg/kg/injection, schedule: Q04DX003 (sc), vehicle: saline with Tween-80): 109 % of control

Nc1nc2c(ncn2C2OC(CO)C(O)C2O)c(=O)[nH]1 (configuration not stated)
T/C (dose: 300.0 mg/kg/injection, schedule: Q04DX003 (sc), vehicle: saline with Tween-80): 50 % of control
T/C [8]: 54 % of control
T/C [5]: 42 % of control
T/C (dose: 2400.0 mg/kg/injection, schedule: Q04DX003 (sc), vehicle: saline with Tween-80): 46 % of control

CC(=S)NC(O)C(=O)c1ccccc1 (configuration not stated)
T/C (dose: 150.0 mg/kg/injection, schedule: Q04DX003 (sc), vehicle: saline with Tween-80): 109 % of control
T/C [8]: 63 % of control
T/C [5]: 99 % of control

C[Si](C)(C)O/C=C1/CCOC1=O
T/C (dose: 50.0 mg/kg/injection, schedule: Q04DX003 (sc), vehicle: suspension in saline): 115 % of control
T/C (dose: 100.0 mg/kg/injection, schedule: Q04DX003 (sc), vehicle: suspension in saline): 122 % of control
T/C (dose: 200.0 mg/kg/injection, schedule: Q04DX003 (sc), vehicle: suspension in saline): 107 % of control
T/C (dose: 400.0 mg/kg/injection, schedule: Q04DX003 (sc), vehicle: suspension in saline): 106 % of control

CCC(=O)N(C)[C@@H](C)C(=O)O[C@H]1CC(=O)N(C)c2cc(cc(OC)c2Cl)C/C(C)=C/C=C[C@@H](OC)[C@@]2(O)C[C@H](OC(=O)N2)[C@@H](C)[C@@H]2O[C@@]12C
T/C (dose: 0.13 mg/kg/injection, schedule: Q01DX010 (sc), vehicle: saline + alcohol): 106 % of control
T/C (dose: 0.25 mg/kg/injection, schedule: Q01DX010 (sc), vehicle: saline + alcohol): 31 % of control

Cc1cc(N(CC(C)Br)CC(C)Br)ccc1N=Nc1ccccc1C(=O)O (configuration not stated)
T/C (dose: 3.13 mg/kg/injection, schedule: Q01DX010 (sc), vehicle: saline with Tween-80): 85 % of control
T/C (dose: 6.25 mg/kg/injection, schedule: Q01DX010 (sc), vehicle: saline with Tween-80): 151 % of control

OCC1OC(n2cnc3c(=S)nc[nH]c32)C(O)C1O (configuration not stated)
T/C (dose: 100.0 mg/kg/injection, schedule: Q01DX010 (sc), vehicle: saline): 86 % of control
T/C [9]: 75 % of control
T/C (dose: 600.0 mg/kg/injection, schedule: Q04DX003 (sc), vehicle: saline): 99 % of control
T/C (dose: 1200.0 mg/kg/injection, schedule: Q04DX003 (sc), vehicle: saline): 124 % of control
T/C (dose: 2400.0 mg/kg/injection, schedule: Q04DX003 (sc), vehicle: saline): 65 % of control

COc1cc(NCCCCCCCNC(C)C)c2nccc(C)c2c1
T/C (dose: 37.5 mg/kg/injection, schedule: Q04DX003 (sc), vehicle: saline): 105 % of control
T/C (dose: 150.0 mg/kg/injection, schedule: Q04DX003 (sc), vehicle: saline): 87 % of control

COc1ccc(CC2C(=O)NC(C)C(=O)N(C)C3C(=O)N(C)C(Cc4ccc(O)c(c4)Oc4ccc(cc4)C3O)C(=O)NC(C)C(=O)NC(C)C(=O)N2C)cc1 (configuration not stated)
T/C (dose: 0.5 mg/kg/injection, schedule: Q01DX010 (sc), vehicle: saline with Tween-80): 69 % of control
T/C (dose: 1.0 mg/kg/injection, schedule: Q01DX010 (sc), vehicle: saline with Tween-80): 85 % of control
T/C (dose: 2.0 mg/kg/injection, schedule: Q01DX010 (sc), vehicle: saline with Tween-80): 96 % of control
T/C (dose: 4.0 mg/kg/injection, schedule: Q01DX010 (sc), vehicle: saline with Tween-80): 40 % of control

CN(C)CC(Cl)CCl (configuration not stated)
T/C [9]: 49 % of control

CN(C)N=Nc1ccc(S(N)(=O)=O)cc1
T/C [6]: 1 % of control and 8 % of control
T/C [7]: 3 % of control and 9 % of control
T/C (dose: 800.0 mg/kg/injection, schedule: Q01DX010 (sc), vehicle: Klucel (hydroxypropylcellulose) (HPC)): 16 % of control

C/C(=N\NC(N)=O)c1cccc(/C(C)=N/NC(N)=O)n1
T/C [3]: 83 % of control
T/C [4]: 54 % of control
T/C (dose: 400.0 mg/kg/injection, schedule: Q04DX003 (sc), vehicle: saline with Tween-80): 71 % of control
T/C (dose: 800.0 mg/kg/injection, schedule: Q04DX003 (sc), vehicle: saline with Tween-80): 89 % of control

CCC1CC2CN(CCc3c([nH]c4ccccc34)C(C(=O)OC)(c3cc4c(cc3OC)N(C)C3C(O)(C(=O)OC)C(OC(C)=O)C5(CC)C=CCN6CCC43C65)C2)C1 (configuration not stated)
T/C (dose: 4.0 mg/kg/injection, schedule: Q04DX003 (sc), vehicle: saline): 63 % of control and 64 % of control
T/C (dose: 4.0 mg/kg/injection, schedule: Q04DX003 (sc), vehicle: suspension in saline): 31 % of control and 33 % of control
T/C (dose: 16.0 mg/kg/injection, schedule: Q04DX003 (sc), vehicle: saline): 6 % of control and 12 % of control

Cc1cc2c(C(C)C)c(O)c(O)c(C=O)c2c(O)c1-c1c(C)cc2c(C(C)C)c(O)c(O)c(C=O)c2c1O
T/C (dose: 37.5 mg/kg/injection, schedule: Q04DX003 (sc), vehicle: saline with Tween-80): 85 % of control
T/C (dose: 75.0 mg/kg/injection, schedule: Q04DX003 (sc), vehicle: saline with Tween-80): 75 % of control

CS(=O)(=O)OCCCCOS(C)(=O)=O
T/C (dose: 25.0 mg/kg/injection, schedule: Q01DX010 (sc), vehicle: saline with Tween-80): 41 % of control
